# Target: 72 kDa type IV collagenase (Homo sapiens) (UniProt P08253)
# Experiment: Inhibition of Matrix metalloprotease-2 at 50 uM
# Chain of 72 kDa type IV collagenase (Homo sapiens) (P08253 110-660 limits assumed): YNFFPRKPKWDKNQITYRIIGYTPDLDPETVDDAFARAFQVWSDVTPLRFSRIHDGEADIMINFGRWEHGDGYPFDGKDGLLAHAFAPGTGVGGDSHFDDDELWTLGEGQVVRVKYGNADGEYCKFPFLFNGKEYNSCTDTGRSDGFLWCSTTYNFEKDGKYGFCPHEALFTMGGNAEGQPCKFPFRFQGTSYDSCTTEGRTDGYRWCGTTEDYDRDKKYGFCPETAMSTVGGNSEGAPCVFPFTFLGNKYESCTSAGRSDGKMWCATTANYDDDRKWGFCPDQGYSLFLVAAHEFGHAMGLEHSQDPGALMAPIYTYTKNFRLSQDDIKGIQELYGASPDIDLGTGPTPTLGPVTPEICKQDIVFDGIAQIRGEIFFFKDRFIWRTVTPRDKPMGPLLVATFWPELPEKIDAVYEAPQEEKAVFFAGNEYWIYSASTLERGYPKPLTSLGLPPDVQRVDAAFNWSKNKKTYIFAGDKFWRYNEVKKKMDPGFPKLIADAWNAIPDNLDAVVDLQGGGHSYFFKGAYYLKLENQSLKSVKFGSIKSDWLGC
row,inhibition [%],SMILES
1,0,O=P(O)(O)CB(O)O
2,50,CCCCCC(B1OC(C)(C)C(C)(C)O1)P(=O)(O)O (configuration not stated)
3,55,CC1(C)OB(C(CCCCl)P(=O)(O)O)OC1(C)C (configuration not stated)
4,40,CC1(C)OB(C(Cc2ccccc2)P(=O)(O)O)OC1(C)C (configuration not stated)
5,50,CC1(C)OB(CP(=O)(O)O)OC1(C)C
6,75,CC1(C)OB(/C=C/CP(=O)(O)O)OC1(C)C

row,SMILES,inhibition [%]
1,COP(=O)(CC1OC(C)(C)C(C)(C)O1)OC,0

# Reference: ChEMBL document CHEMBL1135291, “Novel matrix metallo-proteinase (MMP-2) phosphonoboronate inhibitors” (Bioorg Med Chem Lett, 2002)
